Results reported in patent US8952002B2, “Aminoheteroaryl compounds and preparation method and use thereof” (Shanghai Allist Pharmaceuticals, Inc., priority 2012, dated 2015).

How the values were obtained:
c-Met receptor = c-Met receptor (Homo sapiens (Human), UniProt P08581); experiment: Western blot test of c-Met phosphorylation in EGF-stimulated H1975 cells; assay type: cell-based; details: EGF induction, 1 μM and 5 μM, 6 hr
Method: The human lung cancer cells (H1975) in the logarithmic phase were inoculated to 6-well culture plates at a density of about 4×10^5/well. The cells were adherently grown for 24 hr. Four wells were selected, wherein two wells were added with the compound of Example 2 respectively (1 μM/well and 5 μM/well). The other two wells were not added with drugs. The cells were cultured for 6 hr under the conditions of 10% Hyclone fetal calf serum, 37° C., 5% CO2. EGF was added to the above two wells and one of the drug-free well to stimulate for 15 min. After the cells were washed with cold PBS, sample loading buffer (2×SDS Lysis Buffer+1M DTT+H2O) was added to lyse the cells. The lysate of the cells was heated for 10 min at 100° C., centrifuged for 5 min at 12000 g, and the supernatant was took out. The supernatant was subjected to SDS-PAGE electrophoretic analysis. At 25 mA constant current, after wetly transferred for 2 h, the proteins were transferred to PVDF (polyvinylidine difluoride) membrance. The PVDF membrance was took out, incubated with the corresponding primary antibody (pMet) at 4° C. overnight. […] After washing with TBST for 3 times, images were developed with ECL luminescence kit, and were mounted. […]

[1] = test system: human lung cancer cells (H1975); experiment: SRB proliferation assay, human lung cancer cells (H1975); assay type: cell-based; details: NCI-H1975, H1975, 72 hr, read-out: IC50 against H1975 cells
Description: (§1) The pharmacodynamic action of the compound of the present invention in terms of inhibiting the proliferation of cancer cells may be assayed by conventional methods, one preferable evaluation method of which is Sulforhodamine B (SRB) protein staining method, which calculates the inhibition ratio of a drug against the proliferation of cancer cells through measuring the change in optical absorption value generated after the drug has influenced the cancer cells. Inhibition ratio (%)=(OD control−OD inhibitor−OD blank)/(OD control−OD blank)×100%
(§2) The median inhibitory concentration (IC50) value is obtained by the software GraphPad Prism 5 through calculation.
(§3) The human breast cancer cells in the logarithmic phase were inoculated to 96-well culture plates (180 μl/well) at a density of about 5500/well. The well for each concentration was triplicated. Solvent control wells of corresponding concentrations and apoptosis-free wells were also established. After adherent growth for 24 hr, the compounds of the present invention were added at 20 μl/well, and the cells were cultured for 72 hr under the conditions of 10% Hyclone fetal calf serum, 37° C., 5% CO2. […]
According to the experimental method of Test Example 1, the IC50 value of the compound of the present invention against H1975 cells was calculated as: […]

[2] = test system: human colon cancer cells (HT-29); experiment: SRB proliferation assay, human colon cancer cells (HT-29); assay type: cell-based; details: HT-29, 72 hr, read-out: IC50 against HT-29 cells
Description: as §1, §2, §3
According to the experimental method of Test Example 1, the IC50 value of the compound of the present invention against HT-29 cells was calculated as: […]

[3] = target: receptor tyrosine kinase c-Met (c-Met kinase domain recombination protein) (Homo sapiens (Human), UniProt P08581); experiment: Enzyme linked immunosorbent assay (ELISA) of c-Met kinase activity; assay type: biochemical; details: for IC50: c-Met enzyme, ELISA, read-out: IC50 (nM) mean ± SD
Sequence of receptor tyrosine kinase c-Met (c-Met kinase domain recombination protein) (P08581 1078-1345): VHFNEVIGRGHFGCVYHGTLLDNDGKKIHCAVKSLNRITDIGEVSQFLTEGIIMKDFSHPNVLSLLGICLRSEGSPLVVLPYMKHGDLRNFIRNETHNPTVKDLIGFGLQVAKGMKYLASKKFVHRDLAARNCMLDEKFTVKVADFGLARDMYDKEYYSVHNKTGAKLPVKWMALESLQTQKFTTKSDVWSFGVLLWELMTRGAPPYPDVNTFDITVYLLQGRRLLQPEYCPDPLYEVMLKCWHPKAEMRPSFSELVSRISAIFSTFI
Method: The evaluation of the inhibition of the compound of the present invention on the activity of c-Met enzyme in molecular level may be assayed by conventional methods, one preferable evaluation method of which is enzyme-linked immunosorbent assay (ELISA). By measuring the inhibition ratio of the compounds against the activity of receptor tyrosine kinase protein c-Met enzyme, the median inhibitory concentration IC50 is calculated based on the inhibition ratios for various concentrations using the four-parameter method. The inhibition ratio for a sample (%)=(1−(OD value of a compound−OD value of the control well without enzyme)/(OD value of the negative control well−OD value of the control well without enzyme))×100%
(1) The enzyme reaction substrate Poly(Glu, Tyr) 4:1 was diluted to 20 μg/mL, 1254/well coated enzyme label plate with potassium ion-free PBS (10 mM sodium phosphate buffer, 150 mM NaCl, pH7.2-7.4), which was placed at 37° C. to allow to react for 12-16 h. The liquid in the wells was discarded. The plate was washed with 200 μL/well of T-PBS (potassium ion-free PBS containing 0.1% Tween-20) for three times (each for 5 min). The enzyme label plate was placed into a drying oven at 37° C. to dry for 1-2 h.
(2) To each well was added 50 µL of ATP solution diluted with reaction buffer (50 mM HEPES pH 7.4, 50 mM MgCl2, 0.5 mM MnCl2, 0.2 mM Na3VO4, 1 mM DTT), and to each well was added 1 μL of the compounds. When adding the test compounds, 6 concentration gradients were set for each compound (the starting concentrations and dilution times were determined according to the results of preliminary screening so as to ensure that the maximum inhibition ratio was about 80% and the minimum inhibition ratio was about 20%, and more than two concentration points were in the vicinity of 50% inhibition ratio), and then 504 of c-Met kinase domain recombination protein diluted with reaction buffer was added to initiate the reaction. Two ATP-free control wells were needed for each of the experiments. The reaction was placed on a shaking table at 37° C. (100 rpm) for 1 h. The liquid in the wells was discarded and the plate was washed with T-PBS for three times.
(3) The antibody PY99 was added at 1004/well (the antibody was diluted with T-PBS containing BSA (5 mg/mL) in 1:500). The reaction was performed on a shaking table at 37° C. for 0.5 h. The liquid in the wells was discarded and the plate was washed with T-PBS for three times.
(4) The horseradish peroxidase-labeled goat anti-mouse secondary antibody was added at 100 μL/well (the antibody was diluted with T-PBS containing BSA (5 mg/mL) in 1:2000), The reaction was performed on a shaking table at 37° C. for 0.5 h. The liquid in the wells was discarded and the plate was washed with T-PBS for three times.
(5) 2 mg/ml of OPD colour developing solution (diluted with 0.1M citric acid-sodium citrate buffer (pH=5.4) containing 0.03% H2O2) was added at 1004/well, and the reaction was performed at 25° C. for 1-10 min under protection from light.
(6) 2M H2SO4 was added at 50 μL/well to terminate the reaction, and the values were read by a microplate reader VERSAmax with adjustable wavelength, wherein the wavelength was 490 nm. Through calculation, the inhibitory IC50 values of the compounds of Example 2, 12 and 13 against the activity of receptor tyrosine kinase c-Met enzyme were obtained as: […]

[4] = test system: human breast cancer cells (MDA-MB-231); experiment: SRB proliferation assay, human breast cancer cells (MDA-MB-231); assay type: cell-based; details: MDA-MB-231, 72 hr, read-out: IC50 against MDA-MB-231 cells
Description: as §1
OD control: the OD value of the well of normally grown cells without the action of a drug.
OD inhibitor: the OD value of the well of cells with the action of added compounds to be screened.
OD blank: the OD value of the well of parallel control without seeding cells.
as §2
The human breast cancer cells in the logarithmic phase were inoculated to 96-well culture plates (180 μl/well) at a density of about 5500/well. The well for each concentration was triplicated. Solvent control wells of corresponding concentrations and apoptosis-free wells were also established. […]

Sequence of c-Met receptor (P08581 25-1390): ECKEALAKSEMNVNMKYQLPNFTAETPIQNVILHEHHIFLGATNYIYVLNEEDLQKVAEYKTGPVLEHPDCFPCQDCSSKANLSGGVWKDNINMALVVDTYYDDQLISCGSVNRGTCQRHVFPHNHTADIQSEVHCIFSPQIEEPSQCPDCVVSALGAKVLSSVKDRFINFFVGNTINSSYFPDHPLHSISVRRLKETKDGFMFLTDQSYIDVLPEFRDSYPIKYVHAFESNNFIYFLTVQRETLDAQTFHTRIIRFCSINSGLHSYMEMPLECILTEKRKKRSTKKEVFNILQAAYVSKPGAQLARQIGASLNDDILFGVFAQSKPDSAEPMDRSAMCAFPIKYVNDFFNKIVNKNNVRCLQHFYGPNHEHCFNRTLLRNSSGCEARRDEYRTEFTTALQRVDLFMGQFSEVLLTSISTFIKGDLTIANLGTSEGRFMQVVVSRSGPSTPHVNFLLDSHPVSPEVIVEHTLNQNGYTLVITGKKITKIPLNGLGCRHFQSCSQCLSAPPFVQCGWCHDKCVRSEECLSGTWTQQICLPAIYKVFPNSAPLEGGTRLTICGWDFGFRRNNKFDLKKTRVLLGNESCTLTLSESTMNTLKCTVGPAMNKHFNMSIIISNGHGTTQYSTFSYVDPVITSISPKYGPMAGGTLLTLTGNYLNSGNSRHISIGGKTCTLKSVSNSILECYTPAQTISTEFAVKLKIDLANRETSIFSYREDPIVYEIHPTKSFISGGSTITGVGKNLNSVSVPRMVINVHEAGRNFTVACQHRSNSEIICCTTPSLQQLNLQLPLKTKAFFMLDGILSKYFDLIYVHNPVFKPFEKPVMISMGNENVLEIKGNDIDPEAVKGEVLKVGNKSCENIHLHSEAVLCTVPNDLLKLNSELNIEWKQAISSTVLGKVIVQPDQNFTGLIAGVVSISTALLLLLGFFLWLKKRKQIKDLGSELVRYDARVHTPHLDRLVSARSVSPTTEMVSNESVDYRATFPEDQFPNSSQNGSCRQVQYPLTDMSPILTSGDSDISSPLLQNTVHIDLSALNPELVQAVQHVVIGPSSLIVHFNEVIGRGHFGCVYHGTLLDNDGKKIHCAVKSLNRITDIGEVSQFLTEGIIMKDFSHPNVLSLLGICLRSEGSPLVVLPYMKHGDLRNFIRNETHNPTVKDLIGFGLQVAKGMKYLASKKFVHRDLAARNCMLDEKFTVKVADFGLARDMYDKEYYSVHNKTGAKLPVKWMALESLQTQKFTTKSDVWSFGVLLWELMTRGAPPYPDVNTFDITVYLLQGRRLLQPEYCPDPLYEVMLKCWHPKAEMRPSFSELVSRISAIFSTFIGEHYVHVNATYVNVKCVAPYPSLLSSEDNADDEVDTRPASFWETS

Compound	inhibition of the phosphorylation of c-Met receptor (c-Met receptor)	IC50 [1] [nM]	IC50 [2] [nM]	Average inhibition ratio (%) ([3]; 0.8 nM)	Average inhibition ratio (%) ([3]; 2 nM)	Average inhibition ratio (%) ([3]; 7 nM)	Average inhibition ratio (%) ([3]; 22 nM)	Average inhibition ratio (%) ([3]; 66 nM)	Average inhibition ratio (%) ([3]; 200 nM)	IC50 [3] [nM]	IC50 [4] [nM]
CC(Oc1cc(-c2cn(C3CCNCC3)nn2)cnc1N)c1c(Cl)ccc(F)c1Cl (stereo not shown) [Example 2, 3-(1-(2,6-dichloro-3-fluorophenyl)ethoxy)-5-(1-(piperidin-4-yl)-1H-1,2,3-triazol-4-yl)-2-aminopyridine]	effectively inhibit	11700	5260	8.4	26.9	51.0	69.9	76.8	78.0	6.7 ± 2.3	9530
C[C@@H](Oc1cc(-c2cn(C3CCNCC3)nn2)cnc1N)c1c(Cl)ccc(F)c1Cl [Example 13, (R)-3-(1-(2,6-dichloro-3-fluorophenyl)ethoxy)-5-(1-(piperidin-4-yl)-1H-1,2,3-triazol-4-yl)-2-aminopyridine]				31.1	62.2	67.7	79.7	88.0	88.2	1.7 ± 0.4	
C[C@H](Oc1cc(-c2cn(C3CCNCC3)nn2)cnc1N)c1c(Cl)ccc(F)c1Cl [Example 12]				7.9	18.2	39.8	61.7	76.3	77.5	11.7 ± 2.3	
